Common to all, as to assay: NCI anticancer screen, dose series, 48 h
Assay [1] deals with KM12 colon.
Assay [2] concerns MALME-3M melanoma.
The test system of assay [3] is M14 melanoma.
Assay [4] deals with SNB-75 CNS.
Assay [5] deals with HL-60(TB) leukemia.
In assay [6] the test system is SK-MEL-5 melanoma.
The test system of assay [7] is IGROV1 ovarian.
Assay [8] deals with OVCAR-4 ovarian.
In assay [9] the test system is COLO 205 colon.
The test system of assay [10] is A498 renal.

For ten compounds, GI50 and TGI results are on record in PubChem BioAssay (NCI).

Values joined by “and” are separate entries in the source; they are usually repeats but may differ in a detail not shown here. Identical values can stand only once.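 Five concentrations, 48 hours, 96-well plates. At the GI50, growth is halved. TGI marks complete inhibition of growth.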 Where only a bound is given, the exact number is not on record here.

For `COc1ccc(CNc2nc3cc(N)cc(N)c3nc2-c2ccccc2)cc1OC`, the GI50 in [1] is 12.8 µM; in [2], 3.98 µM; in assay [3] it was 8.56 µM; in [4], 14.1 µM; in assay [5], 3.17 µM; in assay [6] it was 9.27 µM. The GI50 is 13.5 µM in assay [7], 7.36 µM in assay [8] and 7.15 µM in assay [9]. For the same compound, the TGI in assay [1] is 28.4 µM; in [2], 14.4 µM; in assay [3] it was 15.6 µM; in assay [4], 37.4 µM; in assay [5], greater than 89.9 µM; in assay [6] it was 25.3 µM. The TGI in [7] is 38.1 µM; in assay [8], 26.5 µM; in [9], greater than 48.8 µM.
Consider `O=C1CCCCCCCC/C=C/CCC(c2ccco2)O1` (stereo not drawn), for which the GI50 in [1] was 20.7 µM; in assay [2] it was 6.7 µM; in [3] it was 67.7 µM; in assay [4] it was 23.7 µM; in assay [5], 14.5 µM; in assay [6], 44 µM. Also, the results for the GI50 in assay [7] and in assay [9] were 51.2 µM and 68 µM, respectively. The TGI in assay [1] was greater than 100 µM; in assay [2] it was 62.6 µM; in assay [3], greater than 100 µM; in assay [4] it was 92 µM; in [5], 38.7 µM; in [6], greater than 100 µM. In addition, the TGI in assay [7] and in assay [9] was greater than 100 µM each time.
As for `CN(C)CC(/C(Cc1ccccc1)=N\NC(=O)c1ccncc1)c1ccccc1` (stereo not drawn), the TGI is 93.4 µM in [2]; greater than 100 µM in assay [3]; 92.8 µM in [4]; 32 µM in assay [5]; 46.2 µM in assay [6]; greater than 100 µM in assay [7]. Also, the TGI in [8] and in [9] was greater than 100 µM in each case.
Turning to `COc1ccc(/C=C\c2cc(OC)c(OC)c(OC)c2)cc1OC(=O)C(N)CCC(=O)O` (stereo not drawn), the GI50 was 0.00156 µM in assay [1]; 0.00136 µM in assay [2]; 0.000565 µM in assay [3]; 0.00017 µM in assay [5]; 0.00415 µM and 0.000539 µM and 0.000824 µM in [7]. In addition, the TGI in assay [1] was 0.0073 µM; in assay [5], 0.000422 µM and 0.00275 µM; in assay [7], greater than 100 µM; in [8] it was greater than 100 µM.
With `COc1ccc2nc(-c3ccccc3)cc(Nc3ccc(C(C)=O)cc3)c2c1`, the GI50 was 1.88 µM in [1]; 5.28 µM in assay [2]; 2.61 µM in [3]; 17.9 µM in assay [4]; 1.6 µM in assay [6]; 15.8 µM in assay [7]. Further, the GI50 in assay [8] was 12.1 µM; in assay [9], 16.4 µM. For the same compound, the TGI in [1] is 5.2 µM; in assay [2] it was 18.7 µM; in assay [3], 7.25 µM; in assay [4] it was 42.5 µM; in assay [6], 3.86 µM; in assay [7], greater than 100 µM. Further, the TGI in assay [8] and in [9] was greater than 100 µM in each case.
`CC1(C)OC[C@@H]([C@@]2(CO[Si](C)(C)C(C)(C)C)CC=CC(=O)O2)O1`: the GI50 in assay [10] was 18.6 µM; in assay [1], 31.1 µM; in assay [2], 20.1 µM; in assay [3], 20.9 µM; in assay [6], 19 µM; in [7], 23.1 µM. The GI50 in [8] is 30.7 µM; in [9], 33.5 µM. The TGI in [10] is 36.1 µM; in assay [1] it was greater than 100 µM; in assay [2], 47.6 µM; in [3] it was 50.7 µM; in assay [6], 36.3 µM; in [7] it was 49.6 µM. The TGI in [8] and in [9] was greater than 100 µM each time.
For the compound `CC1(CO)OC1COCc1ccccc1` (stereo not drawn), the TGI in [1], in assay [2], in assay [3], in assay [4], in assay [5] and in assay [7] was greater than 100 µM throughout. The TGI in assay [9] is greater than 100 µM.
With `N#CC1=C(N)NC(=S)NC12Nc1ccccc1O2` (stereo not drawn), the GI50 in [1] was 27.1 µM; in assay [2], greater than 100 µM; in assay [3], 26 µM; in assay [4], 59.5 µM; in assay [5] it was 17.2 µM; in assay [6], 27.1 µM. For the same compound, the values for the GI50 in [7], in assay [8] and in [9] were 3.17 µM, 52 µM and 28.1 µM, respectively. Further, the TGI in [1] is greater than 100 µM; in assay [2] it was greater than 100 µM; in assay [3], greater than 100 µM; in assay [4] it was greater than 100 µM; in assay [5], greater than 100 µM; in assay [6] it was 85.4 µM. Moreover, the TGI is 24.9 µM in [7], greater than 100 µM in assay [8] and greater than 100 µM in assay [9].
`COC(=O)/C=C(C)/C=C/c1cc(C(C)=O)c(C)o1`: the TGI in assay [1], in assay [2], in assay [3], in assay [4], in [5] and in assay [7] was greater than 100 µM in each case. Moreover, in [8], the TGI was greater than 100 µM.
In the case of `COC(=O)COc1ccc(/C=C2\N=C(c3ccccc3)N(c3cc(C(F)(F)F)ccc3Cl)C2=O)cc1`, the GI50 is 42.3 µM in assay [1]; 54.1 µM in assay [2]; 50.6 µM in [3]; 76.6 µM in assay [4]; 27.3 µM in assay [5]; 46.1 µM in assay [6]. Besides, the GI50 in [7] was 29.1 µM; in assay [8], 54.8 µM; in [9], 54.4 µM. In addition, the TGI in [1] was greater than 100 µM; in [2], greater than 100 µM; in assay [3] it was greater than 100 µM; in assay [4] it was greater than 100 µM; in assay [5] it was 63.4 µM; in [6], greater than 100 µM. For the same compound, the TGI in assay [7], in assay [8] and in [9] was greater than 100 µM throughout.
